Measured values as given in US6410253B1, “Cholesterol oxidase” (priority 1990, dated 2002).

What was measured:
Type in all cases: biochemical, Brevibacterium sterolicum ATCC 21387
cholesterol oxidase II [1] = test: Influence of inhibitor on cholesterol oxidase II activity; details: for Inhibition of the enzyme (in words): cholesterol oxidase II; for Relative Activity (%) of cholesterol oxidase II in the presence of inhibitor: inhibitor 1 mM, activity in the absence of inhibitor = 100
Experimental: (§1) Relative activity is shown in Table 2, in the presence of an inhibitor at a concentration of 1 mM, when in the absence of the inhibitor, the activities of cholesterol oxidases I and II are regarded as 100.
(§2) The amount of enzyme which catalyzes the reaction of decomposing 1 μmole of cholesterol at 37° C. for one minute in the presence of oxygen is defined as one unit. The titer is determined as follows. While shaking, the enzyme acts on cholesterol and 4-aminoantipyrine and phenol are reacted with the formed hydrogen peroxide in the presence of peroxidase to form quinonimine pigment. Absorption of the thus formed quinonimine pigment in the visible region is measured to determine the amount of hydrogen peroxide generated. Thus, the titer of the enzyme is determined. Hereafter specific activity is defined as activity per 1 mg of protein (unit/mg). Furthermore, an amount of enzyme protein is determined by absorbance at 280 nm (1 mg/ml when absorbance is 1).
In a test tube, there are charged 1.0 ml of 3 mM cholesterol solution (which is prepared by adding 6 ml of 50 mM cholesterol ethanol solution to 94 ml of 1.05% Triton X-100 solution with stirring, heating the mixture for 10 minutes on a water bath, cooling the mixture in water, adding distilled water to the mixture until the total volume is 100 ml; and is not allowed to be used 30 minutes or longer after preparation) , 0.3 ml of 50 mM sodium bilate solution, 0.3 ml of 0.5 mM potassium-sodium phosphate buffer (pH 6.6), 0.5 ml of 42 mM phenol, 0.5 ml of 2.4 mM 4-aminoantipyrine and 0.2 ml of 115 units/ml horseradish-derived peroxidase. The mixture is agitated. After maintaining at 37° C. for 3 minutes, 0.2 ml of an enzyme solution is added to the mixture. While shaking, the reaction is carried out at 37° C. for 5 to 10 minutes. Then, absorbance is measured at 500 nm (OD 500 nm)

cholesterol oxidase I [2] = biological target: T1, cholesterol oxidase I (Brevibacterium sterolicum, UniProt P22637); test: Influence of inhibitor on cholesterol oxidase I activity; details: inhibitor 1 mM; activity in the absence of inhibitor = 100
T1 sequence (P22637 46-552): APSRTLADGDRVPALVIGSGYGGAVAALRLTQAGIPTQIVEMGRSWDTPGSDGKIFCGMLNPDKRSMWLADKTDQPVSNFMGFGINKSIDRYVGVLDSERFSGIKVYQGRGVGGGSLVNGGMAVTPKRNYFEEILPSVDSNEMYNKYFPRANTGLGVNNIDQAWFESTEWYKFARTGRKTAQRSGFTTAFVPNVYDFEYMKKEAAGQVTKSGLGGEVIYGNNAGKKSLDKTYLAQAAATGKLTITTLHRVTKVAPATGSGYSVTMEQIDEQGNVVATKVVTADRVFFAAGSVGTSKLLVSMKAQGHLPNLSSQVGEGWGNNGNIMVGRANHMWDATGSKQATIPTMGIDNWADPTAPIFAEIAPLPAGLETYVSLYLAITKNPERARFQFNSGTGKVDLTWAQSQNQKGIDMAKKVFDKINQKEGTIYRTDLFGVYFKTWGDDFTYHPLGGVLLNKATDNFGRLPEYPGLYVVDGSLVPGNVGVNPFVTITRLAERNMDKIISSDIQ
Experimental: as §1
as §2, with “1). […]” for “1).”

cholesterol oxidase II [3] = test: Substrate specificity of cholesterol oxidase II (relative activity on sterol substrates); details: for Relative Activity (%) of cholesterol oxidase II on substrate: cholesterol = 100; for Substrate specificity (acts / does not act on): cholesterol oxidase II
Experimental: as §2, with “(unit/mg).” for “(unit/mg). Furthermore, an amount of enzyme protein is determined by absorbance at 280 nm (1 mg/ml when absorbance is 1).”
(§3) The enzyme activity is determined by reacting hydrogen peroxide generated by the enzyme with 4-aminoantipyrine and phenol in the presence of peroxidase and quantitatively determining the formed quinonimine pigment. The reaction is shown by the following equations (1) and (2). [drawing 3]
(§4) The mixture is agitated. After maintaining at 37° C. for 3 minutes, 0.2 ml of an enzyme solution is added to the mixture. While shaking, the reaction is carried out at 37° C. for 5 to 10 minutes. Then, absorbance is measured at 500 nm (OD 500 nm)

cholesterol oxidase I [4] = biological target: T1, cholesterol oxidase I; test: Substrate specificity of cholesterol oxidase I (relative activity on sterol substrates); details: cholesterol = 100
Experimental: as §2, with “(unit/mg).” for “(unit/mg). Furthermore, an amount of enzyme protein is determined by absorbance at 280 nm (1 mg/ml when absorbance is 1).”
as §3, §4

## O=[N+]([O-])[O-].[Ag+] [AgNO3, silver nitrate]
Cholesterol oxidase II [1]
  Inhibition of the enzyme (in words): inhibited
  Relative Activity (%) of cholesterol oxidase II in the presence of inhibitor: 1.0%
Cholesterol oxidase I [2]
  Relative Activity (%) of cholesterol oxidase I in the presence of inhibitor: 0%

## O=S(=O)(O)c1cc[c]([Hg][Cl])cc1 [p-Chloromercury benzenesulfonate]
Cholesterol oxidase II [1]
  Inhibition of the enzyme (in words): inhibited
  Relative Activity (%) of cholesterol oxidase II in the presence of inhibitor: 87.0%
Cholesterol oxidase I [2]
  Relative Activity (%) of cholesterol oxidase I in the presence of inhibitor: 80.0%

## C[C@]12CC[C@@H](O)C[C@@H]1CC[C@@H]1[C@@H]2CC[C@]2(C)C(=O)CC[C@@H]12 [Androsterone]
Cholesterol oxidase II [3]
  Relative Activity (%) of cholesterol oxidase II on substrate: 0%
  Substrate specificity (acts / does not act on): does not act on
Cholesterol oxidase I [4]
  Relative Activity (%) of cholesterol oxidase I on substrate: 0%

## C[C@]12CC[C@H](O)CC1=CC[C@@H]1[C@@H]2CC[C@]2(C)C(=O)CC[C@@H]12 [Dehydroisoandrosterone]
Cholesterol oxidase II [3]
  Relative Activity (%) of cholesterol oxidase II on substrate: 13.0%
Cholesterol oxidase I [4]
  Relative Activity (%) of cholesterol oxidase I on substrate: 41.4%

## C[C@]12CC[C@@H]3c4ccc(O)cc4CC[C@H]3[C@@H]1CC[C@@H]2O [Estradiol]
Cholesterol oxidase I [4]
  Relative Activity (%) of cholesterol oxidase I on substrate: 0%

## CCCCC/C=C\C/C=C\CCCCCCCC(=O)O[C@H]1CC[C@@]2(C)C(=CC[C@H]3[C@@H]4CC[C@H]([C@H](C)CCCC(C)C)[C@@]4(C)CC[C@@H]32)C1 [Cholesterol linoleate]
Cholesterol oxidase II [3]
  Relative Activity (%) of cholesterol oxidase II on substrate: 0%
  Substrate specificity (acts / does not act on): does not act on
Cholesterol oxidase I [4]
  Relative Activity (%) of cholesterol oxidase I on substrate: 0%

## CC[C@H](/C=C/[C@@H](C)[C@H]1CC[C@H]2[C@@H]3CC=C4C[C@@H](O)CC[C@]4(C)[C@H]3CC[C@]12C)C(C)C [Stigmasterol]
Cholesterol oxidase II [3]
  Relative Activity (%) of cholesterol oxidase II on substrate: 64.4%
Cholesterol oxidase I [4]
  Relative Activity (%) of cholesterol oxidase I on substrate: 10.0%

## CC(=O)[C@H]1CC[C@H]2[C@@H]3CC=C4C[C@@H](O)CC[C@]4(C)[C@H]3CC[C@]12C [Pregnenolone]
Cholesterol oxidase II [3]
  Relative Activity (%) of cholesterol oxidase II on substrate: 32.9%
Cholesterol oxidase I [4]
  Relative Activity (%) of cholesterol oxidase I on substrate: 22.4%

## Oc1cccc2cccnc12 [o-Hydroxyquinoline]
Cholesterol oxidase II [1]
  Inhibition of the enzyme (in words): inhibited
  Relative Activity (%) of cholesterol oxidase II in the presence of inhibitor: 91.3%

## CC[C@H](CC[C@@H](C)[C@H]1CC[C@H]2[C@@H]3CC=C4C[C@@H](O)CC[C@]4(C)[C@H]3CC[C@]12C)C(C)C [β-Sitosterol]
Cholesterol oxidase II [3]
  Relative Activity (%) of cholesterol oxidase II on substrate: 82.0%
Cholesterol oxidase I [4]
  Relative Activity (%) of cholesterol oxidase I on substrate: 19.7%

## C=C1CC[C@H](O)C/C1=C/C=C1\CCC[C@]2(C)[C@@H]([C@H](C)CCCC(C)C)CC[C@@H]12 [Vitamin D3]
Cholesterol oxidase II [3]
  Relative Activity (%) of cholesterol oxidase II on substrate: 0%
  Substrate specificity (acts / does not act on): does not act on
Cholesterol oxidase I [4]
  Relative Activity (%) of cholesterol oxidase I on substrate: 0%

## CC(C)=CCC[C@@H](C)[C@H]1CC[C@@]2(C)C3=C(CC[C@]12C)[C@@]1(C)CC[C@H](O)C(C)(C)[C@@H]1CC3 [Lanosterol]
Cholesterol oxidase II [3]
  Relative Activity (%) of cholesterol oxidase II on substrate: 0%
  Substrate specificity (acts / does not act on): does not act on
Cholesterol oxidase I [4]
  Relative Activity (%) of cholesterol oxidase I on substrate: 0%

## CC(C)CCC[C@@H](C)[C@H]1CC[C@H]2[C@@H]3CC=C4C[C@@H](O)CC[C@]4(C)[C@H]3CC[C@]12C [Cholesterol, 5-cholesten-3-β-ol]
Cholesterol oxidase II [3]
  Relative Activity (%) of cholesterol oxidase II on substrate: 100%
Cholesterol oxidase I [4]
  Relative Activity (%) of cholesterol oxidase I on substrate: 100%
